This note sets out measurements from ChEMBL document CHEMBL1201862, “PubChem BioAssay data set” (2004).

Activity calls are given as the source filed them. The rule behind the calls is not given here. Where only a bound is given, the exact number is not on record here.

The target of the experiment is T1, Exodeoxyribonuclease V (Escherichia coli (strain K12), UniProt P04993+P07648+P08394).
T1 sequence (P04993 whole entry): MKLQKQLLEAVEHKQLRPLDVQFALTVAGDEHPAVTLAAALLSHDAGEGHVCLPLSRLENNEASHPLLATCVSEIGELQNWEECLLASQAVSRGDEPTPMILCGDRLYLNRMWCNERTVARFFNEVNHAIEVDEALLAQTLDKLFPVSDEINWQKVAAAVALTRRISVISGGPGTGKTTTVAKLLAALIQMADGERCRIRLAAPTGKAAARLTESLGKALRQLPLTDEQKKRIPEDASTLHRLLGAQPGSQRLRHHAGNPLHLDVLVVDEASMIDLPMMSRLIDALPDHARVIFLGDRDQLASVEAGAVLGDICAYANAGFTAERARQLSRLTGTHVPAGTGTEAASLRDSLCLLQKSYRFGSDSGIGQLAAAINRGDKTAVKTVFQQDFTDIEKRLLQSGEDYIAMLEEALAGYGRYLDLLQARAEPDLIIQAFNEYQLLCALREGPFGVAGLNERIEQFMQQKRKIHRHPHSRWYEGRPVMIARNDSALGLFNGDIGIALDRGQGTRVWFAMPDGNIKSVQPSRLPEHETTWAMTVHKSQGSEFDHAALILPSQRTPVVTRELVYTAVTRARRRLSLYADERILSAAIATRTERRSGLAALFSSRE
T1 sequence (P07648 whole entry): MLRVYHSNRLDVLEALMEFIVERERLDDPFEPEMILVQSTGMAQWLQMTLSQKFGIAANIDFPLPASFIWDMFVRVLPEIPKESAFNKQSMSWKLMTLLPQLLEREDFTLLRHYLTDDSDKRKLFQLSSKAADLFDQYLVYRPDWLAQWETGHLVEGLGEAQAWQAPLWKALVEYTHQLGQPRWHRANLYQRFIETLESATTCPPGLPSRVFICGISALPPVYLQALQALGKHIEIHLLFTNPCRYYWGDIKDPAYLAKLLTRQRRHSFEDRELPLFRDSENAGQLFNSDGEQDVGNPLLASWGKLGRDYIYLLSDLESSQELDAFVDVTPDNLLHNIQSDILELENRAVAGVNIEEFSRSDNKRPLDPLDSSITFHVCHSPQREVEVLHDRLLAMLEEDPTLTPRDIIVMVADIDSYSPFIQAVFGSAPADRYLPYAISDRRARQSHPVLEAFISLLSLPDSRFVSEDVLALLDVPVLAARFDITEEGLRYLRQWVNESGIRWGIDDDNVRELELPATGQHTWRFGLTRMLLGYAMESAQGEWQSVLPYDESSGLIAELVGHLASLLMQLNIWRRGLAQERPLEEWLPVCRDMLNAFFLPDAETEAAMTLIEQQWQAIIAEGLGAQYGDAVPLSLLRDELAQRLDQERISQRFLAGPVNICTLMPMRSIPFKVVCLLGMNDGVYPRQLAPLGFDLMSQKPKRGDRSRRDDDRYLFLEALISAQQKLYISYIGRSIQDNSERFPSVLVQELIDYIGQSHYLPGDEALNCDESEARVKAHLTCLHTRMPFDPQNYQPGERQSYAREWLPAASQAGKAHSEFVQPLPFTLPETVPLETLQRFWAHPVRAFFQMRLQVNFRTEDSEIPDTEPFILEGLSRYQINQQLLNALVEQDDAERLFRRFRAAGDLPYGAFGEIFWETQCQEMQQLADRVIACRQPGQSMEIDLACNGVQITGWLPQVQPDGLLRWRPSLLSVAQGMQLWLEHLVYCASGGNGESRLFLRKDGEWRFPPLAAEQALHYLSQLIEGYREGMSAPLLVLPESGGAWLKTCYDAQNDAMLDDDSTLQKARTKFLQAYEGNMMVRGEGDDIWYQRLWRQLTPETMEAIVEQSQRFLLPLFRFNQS
T1 sequence (P08394 whole entry): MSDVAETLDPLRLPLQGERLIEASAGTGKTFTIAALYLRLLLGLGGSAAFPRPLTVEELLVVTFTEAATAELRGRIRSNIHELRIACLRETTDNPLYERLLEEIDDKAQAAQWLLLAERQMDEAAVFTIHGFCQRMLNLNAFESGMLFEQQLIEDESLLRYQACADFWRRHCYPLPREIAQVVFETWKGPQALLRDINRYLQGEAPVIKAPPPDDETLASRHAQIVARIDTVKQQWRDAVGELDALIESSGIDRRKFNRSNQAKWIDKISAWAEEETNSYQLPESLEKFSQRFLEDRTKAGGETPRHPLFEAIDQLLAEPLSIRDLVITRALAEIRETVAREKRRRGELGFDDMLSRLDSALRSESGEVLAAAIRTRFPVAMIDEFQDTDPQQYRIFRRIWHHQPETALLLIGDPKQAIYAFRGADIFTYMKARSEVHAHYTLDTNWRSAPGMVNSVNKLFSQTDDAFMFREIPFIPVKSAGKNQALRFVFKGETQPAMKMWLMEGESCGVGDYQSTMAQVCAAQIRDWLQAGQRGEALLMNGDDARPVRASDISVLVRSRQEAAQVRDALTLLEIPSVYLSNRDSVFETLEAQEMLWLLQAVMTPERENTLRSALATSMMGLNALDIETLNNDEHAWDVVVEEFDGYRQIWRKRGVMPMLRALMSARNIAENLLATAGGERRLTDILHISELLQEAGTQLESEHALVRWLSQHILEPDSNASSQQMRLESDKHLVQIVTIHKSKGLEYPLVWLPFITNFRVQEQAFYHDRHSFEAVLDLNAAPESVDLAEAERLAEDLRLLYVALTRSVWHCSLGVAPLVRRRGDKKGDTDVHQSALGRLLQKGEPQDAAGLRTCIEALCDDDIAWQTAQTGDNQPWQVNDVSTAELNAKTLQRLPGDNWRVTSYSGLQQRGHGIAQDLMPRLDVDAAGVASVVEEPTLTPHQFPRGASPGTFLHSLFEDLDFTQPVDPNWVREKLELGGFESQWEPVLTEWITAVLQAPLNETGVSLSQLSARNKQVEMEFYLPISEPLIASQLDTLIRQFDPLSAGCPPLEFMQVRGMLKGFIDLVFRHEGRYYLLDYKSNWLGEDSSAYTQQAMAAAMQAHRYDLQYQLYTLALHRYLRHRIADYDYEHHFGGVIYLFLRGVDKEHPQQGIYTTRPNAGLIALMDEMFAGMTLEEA
Put plainly: RecBCD inhibition via phage-restricted bacterial growth – absorbance, V66 E. coli, mutant T4 phage, counter-screen for AddAB inhibitor project, dose response (AID 492957). It is filed as functional, cell-based, Escherichia coli str. K-12 substr. MG1655. A general note: The purpose of a counterscreen is to sort out artefacts and off-target activity.

For `CCCC(=O)NC(c1cccs1)c1cc(Cl)c2cccnc2c1O` (stereo unspecified), the IC50 – broadly, the concentration that inhibits the measured activity by half – was > 119 µM (inactive).
